Our source for the pKi values is ChEMBL document CHEMBL1130260, “A strategy for the incorporation of water molecules present in a ligand binding site into a three-dimensional quantitative structure--activity relationship analysis” (J Med Chem, 1997).

Each structure is given as a SMILES string.

The target of this test is Glycogen phosphorylase, muscle form (Oryctolagus cuniculus) (UniProt P00489). As to conditions: Muscle tissue.
Sequence of Glycogen phosphorylase, muscle form (Oryctolagus cuniculus) (P00489 whole entry, looked up): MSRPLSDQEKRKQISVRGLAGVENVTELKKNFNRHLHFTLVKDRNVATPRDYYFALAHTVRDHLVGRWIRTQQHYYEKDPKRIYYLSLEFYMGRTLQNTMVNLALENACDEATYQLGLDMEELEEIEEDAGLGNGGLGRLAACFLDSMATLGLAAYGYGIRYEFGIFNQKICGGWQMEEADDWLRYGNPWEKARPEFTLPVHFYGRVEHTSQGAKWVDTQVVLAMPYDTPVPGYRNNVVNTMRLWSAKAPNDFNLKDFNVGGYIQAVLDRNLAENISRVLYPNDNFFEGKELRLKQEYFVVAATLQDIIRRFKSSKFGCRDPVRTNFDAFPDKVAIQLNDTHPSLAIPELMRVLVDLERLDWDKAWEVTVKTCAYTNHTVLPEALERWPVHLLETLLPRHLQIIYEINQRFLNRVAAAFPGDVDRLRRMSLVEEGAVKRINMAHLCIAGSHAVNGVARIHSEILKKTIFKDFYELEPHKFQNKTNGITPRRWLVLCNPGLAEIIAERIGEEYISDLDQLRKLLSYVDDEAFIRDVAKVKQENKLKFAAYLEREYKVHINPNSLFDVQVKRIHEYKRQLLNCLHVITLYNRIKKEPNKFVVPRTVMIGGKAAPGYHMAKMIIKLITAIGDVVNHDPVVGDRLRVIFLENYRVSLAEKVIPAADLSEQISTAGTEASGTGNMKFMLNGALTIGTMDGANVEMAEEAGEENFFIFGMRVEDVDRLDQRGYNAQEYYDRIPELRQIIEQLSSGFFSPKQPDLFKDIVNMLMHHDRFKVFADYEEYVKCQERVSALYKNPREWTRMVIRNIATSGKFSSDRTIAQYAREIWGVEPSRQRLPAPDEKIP
Take `COC(=O)C1OC(CO)C(O)C(O)C1O` (stereo in doubt; 18): the negative logarithm of the Ki (pKi) was found to be 2.55.

As for `N#CC[C@@H]1O[C@H](CO)[C@@H](O)[C@H](O)[C@H]1O`, the pKi stood at 2.05.

For the molecule `OCC1OC(CO)C(O)C(O)C1O` (stereo not drawn), the pKi came out at 2.82.

For the molecule `[N-]=[N+]=NC[C@@H]1O[C@H](CO)[C@@H](O)[C@H](O)[C@H]1O`, the pKi stood at 1.82.

For the molecule `COC(=O)N[C@]1(C(N)=O)O[C@H](CO)[C@@H](O)[C@H](O)[C@H]1O` (stereo in doubt; 49), the pKi was 3.5.

Molecule `COC(=O)C1OC(CO)C(O)C(O)C1O` (stereo in doubt; 4) came in with a pKi of 1.62.

`COC(=O)N[C@]1(C(N)=O)O[C@H](CO)[C@@H](O)[C@H](O)[C@H]1O` (stereo in doubt; 35) had a pKi of 4.8.

The molecule `CC(=O)NN1C(=O)N[C@@]2(O[C@@H](CO)[C@@H](O)[C@H](O)[C@@H]2O)C1=O` came in with a pKi of 3.26.

The molecule `O=C(CBr)N[C@H]1O[C@@H](CO)[C@@H](O)[C@H](O)[C@@H]1O` returned a pKi of 4.36.

Regarding `NN1C(=O)N[C@@]2(O[C@@H](CO)[C@@H](O)[C@H](O)[C@@H]2O)C1=O`, the pKi turned out to be 3.84.

On to `CCCC(=O)N[C@H]1O[C@H](CO)[C@@H](O)[C@H](O)[C@H]1O`, for which the pKi was found to be 4.03.

On to `NC(=O)N[C@H]1O[C@H](CO)[C@@H](O)[C@H](O)[C@H]1O`, for which the negative logarithm of the Ki (pKi) was found to be 3.85.

`NCC1OC(CO)C(O)C(O)C1O` (stereo in doubt; 19) gave a pKi of 1.78.

As for `[N-]=[N+]=NC[C@H]1O[C@H](CO)[C@@H](O)[C@H](O)[C@H]1O`, the pKi was 1.65.

Consider `NNC(=O)[C@@H]1O[C@H](CO)[C@@H](O)[C@H](O)[C@H]1O` (stereo in doubt; 14), for which the negative-log Ki (pKi) is 3.4.

In turn, `[N-]=[N+]=NC[C@@]1(O)O[C@@H](CO)[C@@H](O)[C@H](O)[C@@H]1O` displayed a negative-log Ki (pKi) of 2.13.

Regarding `OCC1OC(S)C(O)C(O)C1O` (stereo not drawn), the pKi was determined as 3.

`O=C(N[C@H]1O[C@H](CO)[C@@H](O)[C@H](O)[C@H]1O)c1ccccc1` gave a negative-log Ki (pKi) of 4.09.

As to `O=C(NC1CC1)[C@H]1O[C@@H](CO)[C@@H](O)[C@H](O)[C@@H]1O`, the negative logarithm of the Ki (pKi) worked out at 2.89.

Molecule `O=C(CCl)N[C@H]1O[C@H](CO)[C@@H](O)[C@H](O)[C@H]1O` yielded a negative logarithm of the Ki (pKi) of 4.35.

In the case of `CC(=O)N[C@H]1O[C@H](CO)[C@@H](O)[C@H](O)[C@H]1O`, the pKi worked out at 4.5.

In turn, `O=C(NCCO)[C@H]1O[C@@H](CO)[C@@H](O)[C@H](O)[C@@H]1O` displayed a pKi of 2.59.

The molecule `CCC(=O)N[C@H]1O[C@H](CO)[C@@H](O)[C@H](O)[C@H]1O` came in with a negative-log Ki (pKi) of 4.41.

The molecule `O=C(Nc1ccccc1)C1OC(CO)C(O)C(O)C1O` (stereo not drawn) registered a pKi of 2.27.

Molecule `CS(=O)(=O)OC[C@]1(O)O[C@@H](CO)[C@@H](O)[C@H](O)[C@@H]1O` yielded a negative-log Ki (pKi) of 2.43.

In turn, `OC[C@H]1O[C@H](OCC2O[C@@H](O)[C@H](O)[C@@H](O)[C@@H]2O)[C@H](O)[C@@H](O)[C@H]1O` (stereo partly drawn) showed a pKi of 1.79.

`NCCC1OC(CO)C(O)C(O)C1O` (stereo not drawn) displayed a negative-log Ki (pKi) of 2.35.

In turn, `CNC(=O)C1OC(CO)C(O)C(O)C1O` (stereo not drawn) showed a negative-log Ki (pKi) of 3.8.

As to `NCC(=O)N[C@H]1O[C@@H](CO)[C@@H](O)[C@H](O)[C@@H]1O`, the negative logarithm of the Ki (pKi) turned out to be 3.43.

`NC(=O)C1OC(CO)C(O)C(O)C1O` (stereo in doubt; 2) returned a negative-log Ki (pKi) of 3.43.

For the molecule `OC[C@@H]1O[C@H](n2cc(O[C@@H]3O[C@H](CO)[C@@H](O)[C@H](O)[C@H]3O)c3ccccc32)[C@@H](O)[C@@H](O)[C@@H]1O`, the pKi was found to be 2.59.

As for `N#CC[C@]1(O)O[C@H](CO)[C@@H](O)[C@H](O)[C@H]1O`, the pKi stood at 2.12.

`NC(=O)C1OC(CO)C(O)C(O)C1O` (stereo in doubt; 9) showed a pKi of 3.36.

In the case of `O=C(CS[C@H]1O[C@H](CO)[C@@H](O)[C@H](O)[C@H]1O)Nc1ccccc1`, the negative logarithm of the Ki (pKi) amounted to 2.44.

`NNC(=O)[C@@H]1O[C@H](CO)[C@@H](O)[C@H](O)[C@H]1O` (stereo in doubt; 3): the pKi came to 2.52.

The molecule `CC(=O)NCC(=O)N[C@H]1O[C@H](CO)[C@@H](O)[C@H](O)[C@H]1O` came in with a negative-log Ki (pKi) of 3.

`O=C(Nc1ccc(O)cc1)[C@H]1O[C@@H](O)[C@@H](O)[C@H](O)[C@@H]1O` showed a negative-log Ki (pKi) of 2.36.

As to `CS(=O)(=O)OCC1OC(CO)C(O)C(O)C1O` (stereo not drawn), the pKi amounted to 2.32.

Consider `NCC1OC(CO)C(O)C(O)C1O` (stereo in doubt; 5), for which the pKi stood at 1.46.

`OC[C@@H]1O[C@H](OC[C@H]2S[C@H](O)[C@H](O)[C@@H](O)[C@@H]2O)[C@@H](O)[C@@H](O)[C@@H]1O` returned a pKi of 2.7.

`CNNC(=O)[C@H]1O[C@H](CO)[C@@H](O)[C@H](O)[C@H]1O` had a negative logarithm of the Ki (pKi) of 2.75.

On to `O=C(NCC(F)(F)F)[C@H]1O[C@@H](CO)[C@@H](O)[C@H](O)[C@@H]1O`, for which the pKi is 2.09.

The molecule `COC(=O)N[C@@H]1O[C@H](CO)[C@@H](O)[C@H](O)[C@H]1O` came in with a pKi of 4.07.

In turn, `NC(=O)CS[C@H]1O[C@H](CO)[C@@H](O)[C@H](O)[C@H]1O` yielded a pKi of 1.68.

`O=C1N[C@@]2(O[C@@H](CO)[C@@H](O)[C@H](O)[C@@H]2O)C(=O)N1O`: the pKi is 4.41.

Take `O=C(CS[C@H]1O[C@H](CO)[C@@H](O)[C@H](O)[C@H]1O)Nc1ccc(F)cc1F`: the negative logarithm of the Ki (pKi) came to 1.72.

The molecule `OC[C@@H]1O[C@@](O)(CO)[C@@H](O)[C@@H](O)[C@@H]1O` came in with a pKi of 1.8.

`O=C1CNC(=O)[C@@]2(N1)O[C@@H](CO)[C@@H](O)[C@H](O)[C@@H]2O` yielded a negative logarithm of the Ki (pKi) of 4.22.

A word on the pKi: it is the Ki on a negative log10 scale, so that one unit is a factor of ten.
